# From patent publication US20180369268A1, “METHODS FOR IDENTIFYING INHIBITORS OF "STIMULATOR OF INTERFERON GENE"- DEPENDENT INTERFERON PRODUCTION” (ADURO BIOTECH, INC., priority 2015, published 2018)
# How the values were obtained:
# hSTING WT = molecular target: T1, hSTING WT (Homo sapiens, UniProt Q86WV6, H232R); assay: Differential scanning fluorometry (DSF) Tm shift with purified STING AA140-379; format: binding; conditions: ligand 1 mM, 1 mg/ml STING AA140-379
# T1 construct: DNA encoding amino acids 140-379 (amino acid numbering corresponding to Swiss Prot Q86WV6); 6xHIS-SUMO (with TEV site) (N, cleaved yes); made in house; host or cells: Rosetta2 (DE3) E. coli
# T1 sequence (Q86WV6 140-379 H232R): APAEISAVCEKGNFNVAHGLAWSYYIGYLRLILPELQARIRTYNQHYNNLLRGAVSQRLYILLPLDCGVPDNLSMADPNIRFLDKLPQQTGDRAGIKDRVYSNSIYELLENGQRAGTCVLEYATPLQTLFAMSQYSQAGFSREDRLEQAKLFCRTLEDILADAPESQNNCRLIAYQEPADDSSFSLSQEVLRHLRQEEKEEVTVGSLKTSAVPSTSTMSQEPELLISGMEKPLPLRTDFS
# Source text: (§1) DNA encoding amino acids 140-379 (amino acid numbering corresponding to Swiss Prot Q86WV6) was amplified from plasmids containing the full length sequence of human STING alleles via polymerase chain reaction with the following primers: forward […] (SEQ ID NO: 9) and reverse […] (SEQ ID NO: 10). STING variant alleles were assigned according to Yi, et al, (2013), PLoS One, 8(10), e77846 (DOI: 10.1371/journal.pone.0077846. PCR products were cloned into bacterial expression vector encoding a N-terminal hexa-histidine affinity tag (6×HIS) followed by a small ubiquitin-like modifier (SUMO) solubility sequence (Butt, et al, (2005) Protein expression and purification 43.1, 1-9) and tobacco etch virus protease cleavage site (TEV) using ligation independent cloning (Aslanidis, et al, (1990) Nucleic acids research, 18.20, 6069-6074).
# (§2) Plasmids encoding 6×HIS-SUMO-TEV-STING amino acids 140-379 were transformed into Rosetta2 (DE3) E. coli cells (EMD Millipore) for protein expression. Cells were grown in lysogeny broth at 37° C. until a […] absorbance of 0.6 was reached. Cells were then transferred to 18° C. and protein expression was induced overnight by the addition of isopropyl β-D-1-thiogalactopyranoside to the media at a concentration of 0.25 mM. Cells were harvested by centrifugation at 6,000 times gravity for 10 minutes. Cell pellets were re-suspended on ice in a buffer containing 50 mM Tris hydrochloride (Tris-HCl) pH 7.5, 500 mM sodium chloride (NaCl), 20 mM imidazole, 10% glycerol, 1 mM tris(2-carboxyethyl)phosphine hydrochloride (TCEP) and protease inhibitor tablet (Pierce) (Buffer A). Cells were lysed using an S-450D sonifier (Emmerson industrial) on ice. Cell lysate was centrifuged at 15,000 times gravity for 30 minutes at 4° C. Soluble material was applied to nickel-nitrilotriacetic acid (Ni-NTA) coupled Sepharose CL-6B (Qiagen) for 1 hour with gentle rocking at 4° C. After transfer to a gravity flow poly-prep column (Bio-Rad), resin was washed extensively in buffer A. Protein was eluted from the column in a buffer containing 20 mM Tris-HCl pH 7.5, 150 mM NaCl, 300 mM imidazole, 10% glycerol and 0.5 mM TCEP. To remove the 6×HIS-SUMO tag eluted protein was mixed with TEV protease (Sigma) at a ratio of 1:250 (w:w) and dialyzed overnight against a buffer containing 20 mM Tris-HCl pH 7.5, 150 mM NaCl, 5 mM imidazole, 10% glycerol and 0.5 mM TCEP. TEV protease and 6×HIS-SUMO tags were depleted by the addition of Ni-NTA resin (Qiagen) to the sample, purified STING amino acids 140-379 was collected by removal of the resin using a poly-prep column STING AA140-379 was concentrated with a 10,000 Dalton molecular weight cutoff centrifuge concentrator (EMD Millipore) to a final concentration of approximately 10 mg/ml. Protein was aliquoted, flash frozen in liquid nitrogen and stored at −80° C. until use.
# (§3) Differential scanning fluorometry (DSF) is a technique that measures the ability of ligands to bind to and stabilize purified proteins (Niesen, et al, (2007) Nature protocols 2.9, 2212-2221). The protein is heated in the presence of a dye that binds to and fluoresces in hydrophobic environments. The protein is thermally denatured by heating resulting in increased dye binding to the unfolded protein and fluorescence. The temperature midpoint (Tm) of a proteins denaturation is established by calculating the half maximal value of the denaturation curve. The temperature midpoint of the protein in the presence of a ligand is directly related to the affinity of the ligand for the protein and therefore its ability to stabilize the protein at higher temperatures.
# (§4) DSF was performed in a 20 μL reaction comprising 20 mM Tris-HCl pH 7.5, 150 mM NaCl, 1:500 dilution of SYPRO Orange (Life Technologies), 1 mg/ml purified STING AA140-379 protein and ligand at a concentration of 1 mM. Wild type hSTING, HAQ allele hSTING and/or REF allele hSTING were used with scaffold molecules of the invention as listed in Table 2.
# hSTING REF allele = molecular target: T2, hSTING REF allele (Homo sapiens, UniProt Q86WV6); assay: as above; format: binding; conditions: ligand 1 mM, 1 mg/ml STING AA140-379
# T2 construct: DNA encoding amino acids 140-379 (amino acid numbering corresponding to Swiss Prot Q86WV6); 6xHIS-SUMO (with TEV site) (N, cleaved yes); made in house; host or cells: Rosetta2 (DE3) E. coli
# T2 sequence (Q86WV6 140-379): as the sequence (Q86WV6 140-379 H232R) above, with R93H counted along it
# Source text: as §1, §2, §3, §4
SMILES,hSTING Tm Shift WT (hSTING WT) [°C],hSTING Tm Shift REF (hSTING REF allele) [°C]
"CC(C)(C)[Si](C)(C)O[C@H]1[C@H]2O[P@@](=O)(S)OC[C@H]3O[C@@H](n4cnc5c(N)ncnc54)[C@H](F)[C@@H]3O[P@](=O)(S)OC[C@H]1O[C@H]2n1cnc2c(N)ncnc21 [Compound 6a, dithio-[SP, RP]-cyclic-[3′OTBS-A(2′,5′)p-2′F-A(3′,5′)p]]",9.0,4.8
"CC(C)C(=O)Nc1nc2c(ncn2[C@@H]2O[C@@H]3CO[P@@](=O)(S)O[C@H]4[C@@H](F)[C@H](n5cnc6c(=O)[nH]c(NC(=O)C(C)C)nc65)O[C@@H]4CO[P@@](=O)(S)O[C@H]3[C@H]2F)c(=O)[nH]1 [Compound 32, N,N′-(((2R,3R,3aR,5R,7aR,9R,10R,10aR,12R,14aR)-3,10-difluoro-5,12-dimercapto-5,12-dioxidooctahydro-2H, 7H-difuro[3,2-d:3′,2′-j][1,3,7,9]tetraoxa[2,8]diphosphacyclododecine-2,9-diyl)bis(6-oxo-6,9-dihydro-1H-purine-9,2-diyl))bis(2-methylpropanamide)]",10.7,10.5
"Nc1ccn([C@@H]2O[C@@H]3CO[P@@](=O)(S)O[C@H]4[C@@H](F)[C@H](n5cnc6c(N)ncnc65)O[C@@H]4CO[P@@](=O)(S)O[C@H]3[C@H]2F)c(=O)n1 [Compound 37, 4-amino-1-((2R,3R,3aR,5R,7aR,9R,10R,10aR,12R,14aR)-9-(6-amino-9H-purin-9-yl) 3,10-difluoro-5,12-dimercapto 5,12-dioxidooctahydro-2H,7H-difuro[3,2-d:3′,2′-j][1,3,7,9]tetraoxa[2,8]diphosphacyclododecin-2-yl)pyrimidin-2(1H)-one]",8.2,7.5
"Nc1ccn([C@@H]2O[C@@H]3CO[P@](=O)(S)O[C@H]4[C@@H](F)[C@H](n5cnc6c(N)ncnc65)O[C@@H]4CO[P@@](=O)(S)O[C@H]3[C@H]2F)c(=O)n1 [Compound 37a, 4-amino-1-((2R,3R,3aR,5R,7aR,9R,10R, 10aR,12S,14aR)-9-(6-amino-9H-purin-9-yl)-3,10-difluoro-5,12-dimercapto-5,12-dioxidooctahydro-2H,7H-difuro[3,2-d: 3′,2′-j][1,3,7,9]tetraoxa[2,8]diphosphacyclododecin-2-yl)pyrimidin-2(1H)-one]",5.6,5.3
"Nc1ncnc2c1ncn2[C@H]1O[C@H]2CO[P@](=O)(S)O[C@@H]3[C@H](O)[C@@H](n4cnc5c(N)ncnc54)O[C@H]3CO[P@](=O)(S)O[C@@H]2[C@@H]1O [Compound 48, (2S,3S,3aR,5S,7aS,9S,10S,10aR,12S,14aS)-2,9-bis(6-amino-9H-purin-9-yl)-3,10-dihydroxy-5,12-dimercaptooctahydro-2H,7H-difuro[3,2-d:3′,2′-j][1,3,7,9]tetraoxa[2,8]diphosphacyclododecine 5,12-dioxide]",2.0,2.3

# Second part, the compound after the results:
hSTING Tm Shift WT (hSTING WT) [°C],hSTING Tm Shift REF (hSTING REF allele) [°C],SMILES
12.2,8.3,"Nc1nc(N)c2ncn([C@@H]3O[C@@H]4CO[P@@](=O)(S)O[C@H]5[C@@H](O)[C@H](n6cnc7c(N)nc(N)nc76)O[C@@H]5CO[P@@](=O)(S)O[C@H]4[C@H]3O)c2n1 [Compound 23, (2R,3R,3aS,5R,7aR,9R,10R,10aS,12R,14aR)-2,9-bis(2,6-diamino-9H-purin-9-yl)-3,10-dihydroxy-5,12-dimercaptooctahydro-2H,7H-difuro[3,2-d:3′,2′-j][1,3,7,9]tetraoxa[2,8]diphosphacyclododecine 5,12-dioxide]"
10.0,3.1,"Nc1nc(N)c2ncn([C@@H]3O[C@@H]4CO[P@@](=O)(S)O[C@H]5[C@@H](O)[C@H](n6cnc7c(N)nc(N)nc76)O[C@@H]5CO[P@](=O)(S)O[C@H]4[C@H]3O)c2n1 [Compound 23a, (2R,3R,3aS,5R,7aR,9R,10R,10aS,12S,14aR)-2,9-bis(2,6-diamino-9H-purin-9-yl)-3,10-dihydroxy-5,12-dimercaptooctahydro-2H,7H-difuro[3,2-d:3′,2′-j][1,3,7,9]tetraoxa[2,8]diphosphacyclododecine 5,12-dioxide]"
2.9,6.3,"Nc1ncnc2c1ncn2[C@H]1O[C@H]2CO[P@@](=O)(S)O[C@@H]3[C@H](O)[C@@H](n4cnc5c(N)ncnc54)O[C@H]3CO[P@](=O)(S)O[C@@H]2[C@@H]1O [Compound 48a, Triethylammonium (2S,3S,3aR,5R,7aS,9S,10S,10aR,12S,14aS)-2,9-bis(6-amino-9H-purin-9-yl)-3,10-dihydroxyoctahydro-2H, 7H-difuro[3,2-d: 3′,2′-j][1,3,7,9]tetraoxa[2,8]diphosphacyclododecine-5,12-bis(thiolate) 5,12-dioxide]"
3.0,6.4,"Nc1ncnc2c1ncn2[C@H]1O[C@H]2CO[P@@](=O)(S)O[C@@H]3[C@H](O)[C@@H](n4cnc5c(N)ncnc54)O[C@H]3CO[P@@](=O)(S)O[C@@H]2[C@@H]1O [Compound 48b, triethylammonium (2S,3S,3R,5R,7aS,9S,10S,10aR,12R,14aS)-2,9-bis(6-amino-9H-purin-9-yl)-3,10-dihydroxyoctahydro-2H,7H-difuro[3,2-d: 3′,2′-j][1,3,7,9]tetraoxa[2,8]diphosphacyclododecine-5,12-bis(thiolate) 5,12-dioxide]"
